The subject of test [1] is HCT116/BCRP cells. The experiment in a line: Effect of overcoming anticancer agent resistance in vivo, HCT116/BCRP tumour in nude mice. The arrangement: species or system human. The settings on record: day 21; for Tumor weight Mean ± S.D.: BALB/c nude mice; for Tumor growth inhibition ratio IR: vs control group. From the text: A solvent was solely administered to a control group. On the day 21 from the start of administration, a tumor was extirpated from each mice and weighed, and the tumor growth inhibition ratio IR (%) was derived from the following equation: Tumor growth inhibition ratio IR(%)=(1−average tumor weight of each administration group/average tumor weight of control group)×100.

For test [2], the system named is A549/SN-38-4 cells. The experiment in a line: Effect of overcoming SN-38 resistance of BCRP-expressing A549/SN-38-4 cells. It counts as cell-based, human. As to conditions: 48 hours culture with SN-38; for EC50: Homo sapiens, A549, 48 h. The method, then: The human lung cancer A549 cells or the A549/SN-38-4 cells were suspended in a Ham's F-12 medium containing 10% FBS, 100 U/mL of penicillin, and 100 μg/mL of streptomycin (10% FBS/Ham's F-12), and the resultant suspension was inoculated into a 96-well microplate (2×10^3 cells/50 μL/well), followed by culturing at 5% CO2 and 37° C. overnight. […] After completion of culturing, the number of viable cells was counted by use of a viable cell counting reagent [TetraColor ONE (trademark), product of Seikagaku Corporation] according to the attached instruction manual. […] The greater the relative resistance value, the higher the level of acquired resistance.

Test [3] concerns K562/MDR cells. The experiment in a line: Effect on paclitaxel (multidrug) resistance of human MDR1 gene-transduced K562 cells. It is filed as cell-based. The settings on record: concentration for 50% reduction of relative paclitaxel resistance value, K562/MDR vs K562, 72 hours; for EC50: Homo sapiens, read-out: Effect of overcoming resistance EC50. From the text:
After completion of culturing, the number of viable cells was counted by use of TetraColor ONE according to the manufacture's instruction manual.

[4] abbreviates: compound 12.5 mg/kg/day + CPT-11 10 mg/kg/day i.v. once a day for seven days.
The mark [5] stands for this setting: compound 25 mg/kg/day + CPT-11 10 mg/kg/day i.v. once a day for seven days.
[6] abbreviates: concentration for 50% reduction of relative SN-38 resistance value (IC50 A549/SN-38-4 / IC50 A549), hydrochloride.
[7] abbreviates: concentration for 50% reduction of relative SN-38 resistance value (IC50 A549/SN-38-4 / IC50 A549), read-out: Effect of overcoming resistance EC50.
The mark [8] stands for this setting: concentration for 50% reduction of relative SN-38 resistance value (IC50 A549/SN-38-4 / IC50 A549).

Values after ≈ are worked out from the molar mass of the structure shown. Structures can show the parent of a compound that is named as a salt. Where two headings read alike, the source gives them in different places. A value given as a limit tells only on which side of the number the result lay.

`COc1ccc(/C(C#N)=C/c2ccc(-c3cccc(N)c3)o2)cc1OC` [Compound 23, (Z)-3-[5-(3-amino-phenyl)-furan-2-yl]-2-(3,4-dimethoxy-phenyl)-acrylonitrile hydrochloride]: in test [1] (setting [4]), the “Tumor weight Mean ± S.D.” value was 1.21 ± 0.17 g and the “Tumor growth inhibition ratio IR” value worked out at 12.3%. Further, in test [1] (setting [5]), the “Tumor weight Mean ± S.D.” value amounted to 0.71 ± 0.11 g and the “Tumor growth inhibition ratio IR” value was determined as 48.8%. For the same compound, the “Effect of overcoming resistance EC50” value in test [2] (setting [6]) amounted to 0.058 µg/mL.

In the case of `COc1ccc(/C(C#N)=C/c2ccc(N3CCC(OP(=O)([O-])[O-])CC3)s2)cc1OC.[Na+].[Na+]` [Compound 17, mono-(1-{5-[(Z)-2-cyano-2-(3,4-dimethoxy-phenyl)-vinyl]-thiophen-2-yl}-piperidin-4-yl)phosphate sodium salt], the EC50 in test [3] was greater than 5 µg/mL.

For `COc1ccc(/C(C#N)=C/c2ccc(N3CCN(CCO)CC3)o2)cc1OC` [Compound 28, (Z)-2-(3,4-dimethoxy-phenyl)-3-{5-[4-(2-hydroxy-ethyl)-piperazin-1-yl]-furan-2-yl}-acrylonitrile], the EC50 was 0.12 µg/mL (≈ 0.313 µM) in test [2] (setting [7]) and greater than 5 µg/mL in test [3].

Take `COc1ccc(/C(C#N)=C/c2ccc(N3CCC(OP(=O)(O)O)CC3)o2)cc1OC` [Compound 52, mono-(1-{5-[(Z)-2-cyano-2-(3,4-dimethoxy-phenyl)-vinyl]-furan-2-yl}-piperidin-4-yl)phosphate]: the “Effect of overcoming resistance EC50” value in test [3] was greater than 5 µg/mL.

As for `COc1ccc(/C(C#N)=C/c2ccc(N3CCC(O)CC3)o2)cc1OC` [Compound 26, (Z)-2-(3,4-dimethoxy-phenyl)-3-[5-(4-hydroxy-piperidin-1-yl)-furan-2-yl]-acrylonitrile], the EC50 in test [2] (setting [7]) is 0.075 µg/mL (≈ 0.212 µM); in test [3] it was greater than 5 µg/mL.

In the case of `COc1ccc(/C(C#N)=C/c2ccc([N+](=O)[O-])o2)cc1OC` [Compound 19, (Z)-2-(3,4-dimethoxy-phenyl)-3-(5-nitro-furan-2-yl)-acrylonitrile], the EC50 is 0.014 µg/mL (≈ 0.0466 µM) in test [2] (setting [7]) and greater than 5 µg/mL in test [3].

As for `COc1ccc(/C(C#N)=C/c2ccncc2)cc1OC` [Compound 30, (Z)-2-(3,4-dimethoxy-phenyl)-3-pyridin-4-yl-acrylonitrile], the figures for the EC50 in test [2] (setting [7]) and in test [3] were 0.02 µg/mL (≈ 0.0751 µM) and greater than 5 µg/mL, respectively.

Consider `COc1ccc(/C(C#N)=C/c2ccc(N3CCC(OC(=O)CCC(=O)O)CC3)s2)cc1OC` [Compound 18, mono-(1-{5-[(Z)-2-cyano-2-(3,4-dimethoxy-phenyl)-vinyl]-thiophen-2-yl}-piperidin-4-yl)succinate], for which the “Effect of overcoming resistance EC50” value in test [3] was greater than 5 µg/mL.

For the compound `COc1ccc(/C(C#N)=C/c2ccc[nH]2)cc1OC.Cl` [Compound 40, (Z)-2-(3,4-dimethoxy-phenyl)-3-(1H-pyrrol-2-yl)-acrylonitrile hydrochloride], the figures for the EC50 in test [2] (setting [7]) and in test [3] were 0.075 µg/mL and greater than 5 µg/mL, respectively.

In the case of `COc1ccc(/C(C#N)=C/c2ccc(N3CCOCC3)o2)cc1OC` [Compound 25, (Z)-2-(3,4-dimethoxy-phenyl)-3-(5-morpholin-4-yl-furan-2-yl)-acrylonitrile], the EC50 in test [2] (setting [7]) is 0.013 µg/mL (≈ 0.0382 µM); in test [3], greater than 5 µg/mL.

As to `COc1ccc(/C(C#N)=C/c2ccc(N3CCOCC3)s2)cc1OC` [Compound 5, (Z)-2-(3,4-dimethoxy-phenyl)-3-(5-morpholin-4-yl-thiophen-2-yl)-acrylonitrile], the EC50 in test [2] (setting [7]) is 0.013 µg/mL (≈ 0.0365 µM); in test [3], greater than 5 µg/mL.

On to `COc1ccc(/C(C#N)=C/c2ccccn2)cc1OC` [Compound 38, (Z)-2-(3,4-dimethoxy-phenyl)-3-pyridin-2-yl-acrylonitrile], for which the EC50 in test [2] (setting [7]) is 0.06 µg/mL (≈ 0.225 µM); in test [3], greater than 5 µg/mL.

As to `COc1ccc(/C(C#N)=C/c2ccc(CO)o2)cc1OC` [Compound 20, (Z)-2-(3,4-dimethoxy-phenyl)-3-(5-hydroxy-methyl-furan-2-yl)-acrylonitrile], the “Effect of overcoming resistance EC50” value in test [2] (setting [8]) was 0.49 µg/mL; in test [3] it was greater than 5 µg/mL.

As for `COc1ccc(/C(C#N)=C/c2ccc(N3CCC(OP(=O)([O-])[O-])CC3)o2)cc1OC.[Na+].[Na+]` [Compound 53, mono-(1-{5-[(Z)-2-cyano-2-(3,4-dimethoxy-phenyl)-vinyl]-furan-2-yl}-piperidin-4-yl)phosphate sodium salt], the EC50 in test [3] is greater than 5 µg/mL.

For the compound `COc1ccc(/C=C(\C#N)c2cccs2)cc1OC` [Compound 55, (E)-3-(3,4-dimethoxy-phenyl)-2-thiophen-2-yl-acrylonitrile], in test [3], the EC50 was greater than 5 µg/mL.

`COc1ccc(/C(C#N)=C/c2ccc(N3CCCCC3)s2)cc1OC` [Compound 4, (Z)-2-(3,4-dimethoxy-phenyl)-3-(5-piperidin-1-yl-thiophen-2-yl)-acrylonitrile]: the “Effect of overcoming resistance EC50” value in test [2] (setting [8]) turned out to be 0.012 µg/mL. In test [3], the EC50 was greater than 5 µg/mL.

For `COc1ccc(/C(C#N)=C/c2cnc(SC)n2Cc2ccccc2)cc1OC` [Compound 42, (Z)-3-(3-benzyl-2-methylsulfanyl-3H-imidazol-4-yl)-2-(3,4-dimethoxy-phenyl)-acrylonitrile], the EC50 in test [2] (setting [7]) is 0.22 µg/mL (≈ 0.562 µM); in test [3], greater than 5 µg/mL.

As for `COc1ccc(/C=C(\C#N)c2ccccn2)cc1OC` [Compound 45, (Z)-3-(3,4-dimethoxy-phenyl)-2-pyridin-2-yl-acrylonitrile], the EC50 in test [2] (setting [7]) is 0.05 µg/mL (≈ 0.188 µM); in test [3] it was greater than 5 µg/mL.

Consider “(Z)-2-(3,4-dimethoxy-phenyl)-3-pyridin-4-yl-acrylonitrile N-oxide [Compound 33]”, for which the figures for the “Effect of overcoming resistance EC50” value in test [2] (setting [8]) and in test [3] were 0.52 µg/mL and greater than 5 µg/mL, respectively.

As for `COc1ccc(/C(C#N)=C/c2cccnc2)cc1OC` [Compound 34, (Z)-2-(3,4-dimethoxy-phenyl)-3-pyridin-3-yl-acrylonitrile], the “Effect of overcoming resistance EC50” value in test [2] (setting [8]) was 0.058 µg/mL. In addition, the EC50 in test [3] is greater than 5 µg/mL.

With `COc1ccc(/C=C(\C#N)c2cccnc2)cc1OC` [Compound 44, (Z)-3-(3,4-dimethoxy-phenyl)-2-pyridin-3-yl-acrylonitrile], the EC50 in test [2] (setting [7]) is 0.056 µg/mL (≈ 0.21 µM); in test [3], greater than 5 µg/mL.

For `COc1ccc(/C(C#N)=C/c2sc(-c3ccccc3)nc2C)cc1OC` [Compound 43, (Z)-2-(3,4-dimethoxy-phenyl)-3-(4-methyl-2-phenyl-thiazol-5-yl)-acrylonitrile], the EC50 was 0.16 µg/mL (≈ 0.441 µM) in test [2] (setting [7]) and greater than 5 µg/mL in test [3].

On to `COc1ccc(/C(C#N)=C/c2ccc(N3CCN(C)CC3)o2)cc1OC` [Compound 27, (Z)-2-(3,4-dimethoxy-phenyl)-3-[5-(4-methyl-piperazin-1-yl)-furan-2-yl]-acrylonitrile], for which, in test [2] (setting [8]), the “Effect of overcoming resistance EC50” value came to 0.2 µg/mL. Moreover, in test [3], the EC50 was greater than 5 µg/mL.

For `COc1ccc(/C(C#N)=C/c2ccc(N)s2)cc1OC` [Compound 3, (Z)-3-(5-amino-thiophen-2-yl)-2-(3,4-dimethoxy-phenyl)-acrylonitrile], the figures for the EC50 in test [2] (setting [7]) and in test [3] were 0.032 µg/mL (≈ 0.112 µM) and greater than 5 µg/mL, respectively.

For `COc1ccc(/C(C#N)=C/c2ccc(N3CCCCC3)s2)cc1OC` [Compound 11, (Z)-2-(3,4-dimethoxy-phenyl)-3-(5-piperidin-1-yl-thiophen-2-yl)-acrylonitrile hydrochloride], the “Effect of overcoming resistance EC50” value in test [2] (setting [6]) worked out at 0.049 µg/mL.

Regarding `COc1ccc(/C=C(\C#N)c2ccsc2)cc1OC` [Compound 56, (Z)-3-(3,4-dimethoxy-phenyl)-2-thiophen-3-yl-acrylonitrile], the EC50 in test [2] (setting [7]) was 0.037 µg/mL (≈ 0.136 µM); in test [3], greater than 5 µg/mL.

`COc1ccc(/C(C#N)=C/c2cc3ccccc3c3ccccc23)cc1OC` [Compound 95, (Z)-2-(3,4-dimethoxy-phenyl)-3-phenanthren-9-yl-acrylonitrile]: in test [2] (read-out: Effect of overcoming resistance EC50, concentration for 50% reduction of relative SN-38 resistance value (IC50 A549/SN-38-4 / IC50 A549)), the EC50 worked out at 0.008 µg/mL (≈ 0.0219 µM).

As to `COc1ccc(/C(C#N)=C/c2ccc(N3CCN(C)CC3)s2)cc1OC` [Compound 8, (Z)-2-(3,4-dimethoxy-phenyl)-3-[5-(4-methyl-piperazin-1-yl)-thiophen-2-yl]-acrylonitrile], the EC50 in test [2] (setting [7]) is 0.045 µg/mL (≈ 0.122 µM).

`COc1ccc(/C(C#N)=C/c2ccc(N(C)CCO)s2)cc1OC` [Compound 7, (Z)-2-(3,4-dimethoxy-phenyl)-3-{5-[(2-hydroxy-ethyl)-methyl-amino]-thiophen-2-yl}-acrylonitrile]: the EC50 in test [2] (setting [7]) was 0.039 µg/mL (≈ 0.113 µM).

The record behind these values is US8697742B2, “BCRP/ABCG2 inhibitor” (Kabushiki Kaisha Yakult Honsha, priority 2005, dated 2014).
